ChEMBL document CHEMBL1155839, “Exploring 9-benzyl purines as inhibitors of glutamate racemase (MurI) in Gram-positive bacteria” (Bioorg Med Chem Lett, 2008)
Values after ≈ are worked out from the molar mass of the structure shown. Values belong to the molecule of their own block, whether it stands above or below them.

Columns and labels:
[1] = target: T1, Glutamate racemase (Enterococcus faecalis (strain ATCC 700802 / V583), UniProt Q836J0); assay: Inhibition of Enterococcus faecalis MurI
T1 sequence (Q836J0 whole entry): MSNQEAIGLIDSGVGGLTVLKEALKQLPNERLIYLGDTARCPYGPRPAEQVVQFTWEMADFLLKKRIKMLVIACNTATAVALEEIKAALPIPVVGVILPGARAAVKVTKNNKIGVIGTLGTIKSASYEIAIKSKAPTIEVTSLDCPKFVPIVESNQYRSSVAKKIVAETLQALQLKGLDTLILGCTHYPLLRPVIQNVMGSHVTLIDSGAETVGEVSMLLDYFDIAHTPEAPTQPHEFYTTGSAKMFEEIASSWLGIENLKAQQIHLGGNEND

[2] = Inhibition of Enterococcus faecium MurI
[3] = Inhibition of Staphylococcus aureus MurI
[4] = Solubility by nephelometry; type: physicochemical
[5] = tested on: Enterococcus faecalis; assay: Antibacterial activity against Enterococcus faecalis; type: functional
[6] = tested on: Enterococcus faecium; assay: Antibacterial activity against Enterococcus faecium; type: functional
[7] = tested on: Staphylococcus aureus; assay: Antibacterial activity against Staphylococcus aureus; type: functional

SMILES: CCCCOc1nc(NCc2ccccc2)c2ncn(Cc3c(F)ccc(C)c3F)c2n1
IC50 [1]: > 400 µM | IC50 [2]: > 400 µM | IC50 [3]: > 400 µM | solubility kinetic [4]: 3.1 µM (≈ 1.36 µg/mL) | MIC [5]: 16 µg/mL (≈ 36.6 µM) | MIC [6]: 16 µg/mL (≈ 36.6 µM) | MIC [7]: 16 µg/mL (≈ 36.6 µM)

SMILES: CCCCOc1nc(NC)c2ncn(Cc3c(F)cccc3F)c2n1
IC50 [1]: 5.5 µM | IC50 [2]: 13.9 µM | IC50 [3]: > 400 µM | solubility kinetic [4]: 100 µM (≈ 34.7 µg/mL) | MIC [5]: 16 µg/mL (≈ 46.1 µM) | MIC [6]: 16 µg/mL (≈ 46.1 µM) | MIC [7]: 16 µg/mL (≈ 46.1 µM)

SMILES: CCCCSc1ncc2ncn(Cc3c(F)ccc(Cl)c3F)c2n1
IC50 [1]: 1 µM | IC50 [2]: 1.8 µM | IC50 [3]: > 400 µM | solubility kinetic [4]: 50 µM (≈ 18.4 µg/mL) | MIC [5]: 16 µg/mL (≈ 43.4 µM) | MIC [6]: 16 µg/mL (≈ 43.4 µM) | MIC [7]: 16 µg/mL (≈ 43.4 µM)

SMILES: CCCCOc1nc(NCc2cccnc2)c2ncn(Cc3c(F)ccc(Cl)c3F)c2n1
IC50 [1]: 2 µM | IC50 [2]: 2.7 µM | IC50 [3]: > 400 µM | solubility kinetic [4]: 18 µM (≈ 8.26 µg/mL) | MIC [5]: 16 µg/mL (≈ 34.9 µM) | MIC [6]: 16 µg/mL (≈ 34.9 µM) | MIC [7]: 16 µg/mL (≈ 34.9 µM)

SMILES: CCC(Oc1nc(N)c2ncn(Cc3c(F)ccc(C)c3F)c2n1)C(F)(F)C(F)(F)F (stereo not drawn)
IC50 [1]: 4.3 µM | IC50 [2]: 4.4 µM | IC50 [3]: > 400 µM | solubility kinetic [4]: 25 µM (≈ 11.3 µg/mL) | MIC [5]: 16 µg/mL (≈ 35.4 µM) | MIC [6]: 16 µg/mL (≈ 35.4 µM) | MIC [7]: 16 µg/mL (≈ 35.4 µM)

SMILES: CC(=O)NC(C)Oc1nc(N)c2ncn(Cc3c(F)ccc(C)c3F)c2n1 (stereo not drawn)
IC50 [1]: 167 µM | IC50 [2]: > 400 µM | IC50 [3]: > 400 µM | solubility kinetic [4]: 100 µM (≈ 37.6 µg/mL) | MIC [5]: 16 µg/mL (≈ 42.5 µM) | MIC [6]: 16 µg/mL (≈ 42.5 µM) | MIC [7]: 16 µg/mL (≈ 42.5 µM)

SMILES: CCCCSc1nc2c(ncn2Cc2c(F)ccc(C)c2F)c(=O)[nH]1
IC50 [1]: 11.5 µM | IC50 [2]: 3.75 µM | IC50 [3]: > 400 µM | solubility kinetic [4]: 100 µM (≈ 36.4 µg/mL) | MIC [5]: 16 µg/mL (≈ 43.9 µM) | MIC [6]: 16 µg/mL (≈ 43.9 µM) | MIC [7]: 16 µg/mL (≈ 43.9 µM)

SMILES: CCCCOc1nc(NCCN2CCOCC2)c2ncn(Cc3c(F)cccc3F)c2n1
IC50 [2]: 5.5 µM | IC50 [3]: > 400 µM | solubility kinetic [4]: 200 µM (≈ 89.3 µg/mL) | MIC [5]: 16 µg/mL (≈ 35.8 µM) | MIC [6]: 16 µg/mL (≈ 35.8 µM) | MIC [7]: 16 µg/mL (≈ 35.8 µM)

SMILES: CCCCOc1nc(N)c2[nH]c(=O)n(Cc3c(F)cccc3F)c2n1
IC50 [1]: 38.1 µM | IC50 [2]: 97.8 µM | IC50 [3]: > 400 µM | solubility kinetic [4]: 200 µM (≈ 69.9 µg/mL) | MIC [5]: 16 µg/mL (≈ 45.8 µM) | MIC [6]: 16 µg/mL (≈ 45.8 µM) | MIC [7]: 16 µg/mL (≈ 45.8 µM)

The remaining lines, values ahead:

IC50 [1]: 5.4 µM | IC50 [2]: 6.5 µM | IC50 [3]: > 400 µM | solubility kinetic [4]: 25 µM (≈ 9.09 µg/mL) | MIC [5]: 16 µg/mL (≈ 44 µM) | MIC [6]: 16 µg/mL (≈ 44 µM) | MIC [7]: 16 µg/mL (≈ 44 µM)
SMILES: CCCCSc1nc(N)c2ncn(Cc3c(F)ccc(C)c3F)c2n1

IC50 [1]: 4.3 µM | IC50 [2]: 6.2 µM | IC50 [3]: > 400 µM | solubility kinetic [4]: 50 µM (≈ 17.5 µg/mL) | MIC [5]: 16 µg/mL (≈ 45.7 µM) | MIC [6]: 16 µg/mL (≈ 45.7 µM) | MIC [7]: 16 µg/mL (≈ 45.7 µM)
SMILES: CCCCSc1nc(N)c2nnn(Cc3c(F)cccc3F)c2n1

IC50 [1]: 26.1 µM | IC50 [2]: 42.5 µM | IC50 [3]: > 400 µM | solubility kinetic [4]: 100 µM (≈ 33.2 µg/mL) | MIC [5]: 16 µg/mL (≈ 48.1 µM) | MIC [6]: 16 µg/mL (≈ 48.1 µM) | MIC [7]: 16 µg/mL (≈ 48.1 µM)
SMILES: CCCCNc1nc(N)c2ncn(Cc3c(F)cccc3F)c2n1

IC50 [1]: 9.8 µM | IC50 [2]: 27 µM | IC50 [3]: > 400 µM | solubility kinetic [4]: 50 µM (≈ 17.4 µg/mL) | MIC [5]: 16 µg/mL (≈ 46.1 µM) | MIC [6]: 16 µg/mL (≈ 46.1 µM) | MIC [7]: 16 µg/mL (≈ 46.1 µM)
SMILES: CCCCOc1nc(N)c2ncn(Cc3c(F)ccc(C)c3F)c2n1

IC50 [1]: 9.4 µM | IC50 [2]: 17.7 µM | IC50 [3]: > 400 µM | solubility kinetic [4]: 42 µM (≈ 15.1 µg/mL) | MIC [5]: 16 µg/mL (≈ 44.6 µM) | MIC [6]: 16 µg/mL (≈ 44.6 µM) | MIC [7]: 16 µg/mL (≈ 44.6 µM)
SMILES: CCCCSc1nc(N)c2ncn(Cc3cccc([N+](=O)[O-])c3)c2n1

IC50 [1]: 1.4 µM | IC50 [2]: 2.5 µM | IC50 [3]: > 400 µM | solubility kinetic [4]: 25 µM (≈ 9.71 µg/mL) | MIC [5]: 16 µg/mL (≈ 41.2 µM) | MIC [6]: 16 µg/mL (≈ 41.2 µM) | MIC [7]: 16 µg/mL (≈ 41.2 µM)
SMILES: CCCCSc1nc(N)c2ncn(Cc3cc([N+](=O)[O-])ccc3OC)c2n1

IC50 [1]: 2.2 µM | IC50 [2]: 2.6 µM | IC50 [3]: > 400 µM | solubility kinetic [4]: 25 µM (≈ 9.6 µg/mL) | MIC [5]: 16 µg/mL (≈ 41.7 µM) | MIC [6]: 16 µg/mL (≈ 41.7 µM) | MIC [7]: 16 µg/mL (≈ 41.7 µM)
SMILES: CCCCSc1nc(N)c2ncn(Cc3c(F)ccc(Cl)c3F)c2n1

IC50 [1]: 4.1 µM | IC50 [2]: 6 µM | IC50 [3]: > 400 µM | solubility kinetic [4]: 50 µM (≈ 17.5 µg/mL) | MIC [5]: 16 µg/mL (≈ 45.8 µM) | MIC [6]: 16 µg/mL (≈ 45.8 µM) | MIC [7]: 16 µg/mL (≈ 45.8 µM)
SMILES: CCCCSc1nc(N)c2ncn(Cc3c(F)cccc3F)c2n1
